Calls of active or inactive are those of the source. The calls are words filed in the database; no cut-off is given here. Where a SMILES comes first, the peptide text is derived from it. The star is where a group is joined. Mob = COc1ccc(C*)cc1; Bn = c1ccc(C*)cc1
Assays:
Type in all cases: functional
Cavia porcellus [1] = organism: Cavia porcellus; test: Relative affinity in guinea pig ileum(GPI) was determined
Cavia porcellus [2] = organism: Cavia porcellus; test: Relative affinity in guinea pig trachea(GPT) was determined
Cavia porcellus [3] = organism: Cavia porcellus; test: Intrinsic activity in guinea pig trachea(GPT) was determined
Cavia porcellus [4] = organism: Cavia porcellus; test: Intrinsic activity in guinea pig ileum(GPI) was determined
Cavia porcellus [5] = organism: Cavia porcellus; test: The concentration required to produce 50% of the maximal effect in guinea pig ileum(GPI)
Cavia porcellus [6] = organism: Cavia porcellus; test: The concentration required to produce 50% of the maximal effect in guinea pig trachea(GPT)
Oryctolagus cuniculus [7] = organism: Oryctolagus cuniculus; test: Intrinsic activity in rabbit mesenteric vein(RMV) was determined
Oryctolagus cuniculus [8] = organism: Oryctolagus cuniculus; test: Relative affinity in rabbit mesenteric vein(RMV) was determined
Oryctolagus cuniculus [9] = organism: Oryctolagus cuniculus; test: The concentration required to produce 50% of the maximal effect in rabbit mesenteric vein(RMV)
Cavia porcellus [10] = organism: Cavia porcellus; test: The concentration required to produce 50% of the maximal effect in guinea pig trachea(GPT) at 10e-4 M; Inactive
Oryctolagus cuniculus [11] = organism: Oryctolagus cuniculus; test: The concentration required to produce 50% of the maximal effect in rabbit mesenteric vein(RMV) at 10e-4 M; Inactive

Row | SMILES | AR (Cavia porcellus [1]) | AR (Cavia porcellus [2]) | Alpha E (Cavia porcellus [3]) | Alpha E (Cavia porcellus [4]) | pD2 (Cavia porcellus [5]) | pD2 (Cavia porcellus [6]) | Alpha E (Oryctolagus cuniculus [7]) | AR (Oryctolagus cuniculus [8]) | pD2 (Oryctolagus cuniculus [9]) | pD2 (Cavia porcellus [10]) | pD2 (Oryctolagus cuniculus [11])
1 | COc1ccc(CSC[C@H](N)C(=O)N[C@@H](CCC(N)=O)C(=O)N[C@@H](Cc2ccccc2)C(=O)N[C@@H](Cc2ccccc2)C(=O)NCC(=O)N[C@@H](CC(C)C)C(=O)N[C@@H](CSCc2ccccc2)C(N)=O)cc1 (H-C(Mob)QFFGLC(Bn)-NH2) | 0.8 | 3 | 0.8 | 1.2 | 6.37 | 5.22 | 0.4 | 2.8 | 5.98 |  | 
2 | CC(C)C[C@H]1NC(=O)CNC(=O)[C@@H](Cc2ccccc2)NC(=O)[C@H](Cc2ccccc2)NC(=O)[C@@H](N)CSSC[C@H](C(N)=O)NC1=O |  |  |  |  |  |  |  |  |  | inactive | inactive
3 | CC(C)C[C@@H]1NC(=O)CNC(=O)[C@H](Cc2ccccc2)NC(=O)[C@H](Cc2ccccc2)NC(=O)[C@@H](N)CSSC[C@@H](C(N)=O)NC1=O | 0.02 |  |  | 0.7 | 4.83 |  |  |  |  |  | 
